{
  "source": "patent US7842682B2",
  "about": "“Boronated metal-phthalocyanines, process for their preparation, pharmaceutical compositions comprising them and use thereof” (L. Molteni & C. Dei Fratelli Alitti, priority 2003, dated 2010)",
  "key": {"[1]": {"experiment": "Photostability (photobleaching) under visible light irradiation, spectrophotometric", "type": "physicochemical", "settings": "irradiated as for FIG. 1; compared with not-boronated (unsubstituted zinc) phthalocyanine", "description": "FIG. 2A: Absorption spectrum and determination of the degraded unsubstituted zinc phthalocyanine, irradiated according to the experimental conditions described above for FIG. 1.\nIt is known that most phthalocyanines are subjected to a more or less extensive photobleaching under visible light irradiation. It is therefore important to define if the rate constant of this process is too fast, so that the active principle is photodegraded at a high rate, which could negatively interfere with the photosensitization of cells or other substrates. […] Results obtained with a not substituted phthalocyanine are reported. In FIG. 2A as a reference. From comparison of the plots shown in FIGS. 2A and 2B it may be concluded that • 1- the boron substituted molecules prepared according to the present invention are as useful photosensitizers able to absorb red visible light as the unsubstituted ones; • 2- the photobleaching kinetics undergoes only limited changes when the phthalocyanine structure is modified by introduction of boronated groups. […] Assessment of Activity on Biological Substrates"}, "[2]": {"experiment": "Pharmacokinetics and tissue distribution in B16-F1 pigmented melanoma bearing mice", "type": "in vivo, C57/BL6 mice", "procedure": "Toward this aim, once tumours had reached the volumes of […], the boronated phthalocyanine as DPPC liposomal preparation (0.75 mg/kg) or as a DOPC liposomal preparation (3 mg/kg) was systemically administered. […]"}, "[3]": {"system": "melanocytes deriving from murine pigmented melanoma B16-F1", "experiment": "Photosensitization of B16-F1 melanocytes, survival by Trypan Blue exclusion test", "type": "cell-based", "settings": "24 hrs incubation, DPPC or DOPC liposomal preparation 7 microM; red light 600-750 nm, 50 mW/cm^2; irradiation times as low as 10 min", "procedure": "Irradiations were performed as described above for FIG. 1.\nMelanocytes were incubated (24 hrs) with a DPCC or DOPC liposomal phthalocyanine preparation (7 microM). After incubation, the cells were washed with PBS and irradiated with red visible light (600-750 nm, 50 mW/cm^2). Survival was determined after the photo-treatment (18-24 hrs) by the Trypan Blue exclusion test. Results for delivered phthalocyanine are summarised in FIG. 3A (DPPC liposomes) and in FIG. 3B (DOPC liposomes)."}, "[4]": {"system": "B16F1 transplanted pigmented melanoma", "experiment": "PDT: rate of tumour growth after red light irradiation in melanoma bearing mice", "type": "in vivo, C57/BL6 mice", "procedure": "The tumour response is most evident if the irradiations are carried out at 3 h after injection of the photosensitizer."}, "[5]": {"system": "B16F1 transplanted pigmented melanoma", "experiment": "BNCT: rate of tumour growth after thermal neutron irradiation in melanoma bearing mice", "type": "in vivo, C57/BL6 mice", "procedure": "FIG. 7: Rate of tumour growth as a function of post-irradiation time in C57/BL6 mice bearing a B16F1 transplanted pigmented melanoma which have been intravenously injected with 6.0 mg/kg boronated phthalocyanine prepared according to Example 23, as a DOPC liposomal preparation, and at 24 hours from injection were irradiated by thermal neutrons for 20 and 30 min. The growth profile of the radiosensitized pigmented melanoma is compared with that obtained for untreated control mice."}},
  "note": "“Also recorded” adds a separate entry of the source.",
  "data": [
    {"substance": "1,8(11),15(18),22(25)-tetrakis-{[4-(^11B-o-carboran-1-yl)methyl]phenoxy}-phthalocyaninate zinc(II) [Example 21]", "values": [
      {"measurement": "photobleaching", "setting": "[1]", "value": "more extensive photobleaching"},
      {"measurement": "clearance from plasma", "setting": "[2]; DPPC liposomes 0.75 mg/kg or DOPC liposomes 3 mg/kg, systemically administered", "value": "rapid with no product residue at 24 hrs after the treatment"},
      {"measurement": "clearance from liver and spleen", "setting": "[2]; delivered via DOPC liposomes, after 1 week from injection", "value": "largely cleared"},
      {"measurement": "recovery from liver and spleen", "setting": "[2]; delivered via liposomes", "value": "large recovery; also recorded: accumulated in large amounts"},
      {"measurement": "amount found in the skin (peritumoural tissue)", "setting": "[2]; mouse, in vivo", "value": "small amounts"},
      {"measurement": "recovery from the kidneys", "setting": "[2]; mouse, in vivo", "value": "Very limited amounts"},
      {"measurement": "cell survival after photo-treatment", "setting": "[3]", "value": "almost complete cell mortality"},
      {"measurement": "rate of tumour growth after PDT", "setting": "[4]; 6.0 mg/kg i.v., DOPC liposomal preparation, 670 nm, 200 mW/cm^2, 250 J/cm^2", "value": "significant delay in the rate of tumour growth"},
      {"measurement": "tumour response by interval between injection and irradiation", "setting": "[4]; irradiations carried out at 3 h after injection of the photosensitizer", "value": "most evident"}
    ]},
    {"substance": "1,8(11),15(18),22(25)-tetrakis-{[4-(^10B-o-carboran-1-yl)methyl]phenoxy}phthalocyaninate zinc(II) [Example 23]", "values": [
      {"measurement": "tumour necrosis after BNCT", "setting": "[5]; 6.0 mg/kg i.v. in DOPC liposomes, thermal neutrons at 24 h", "value": "extensive tumour necrosis"},
      {"measurement": "tumour growth after BNCT", "setting": "[5]; 6.0 mg/kg i.v. in DOPC liposomes, thermal neutrons at 24 h for 20 and 30 min, versus untreated control mice", "value": "significant delay in tumour growth"},
      {"measurement": "amount of phthalocyanine accumulated in the tumour", "setting": "[5]; 24 h after i.v. injection in DOPC liposomes", "value": "sufficient to achieve the BNCT effect"}
    ]}
  ]
}
